Like-named read-outs stand apart in the source and are kept apart here.
Experiments:
[1] = molecular target: T1, COX-2 (Homo sapiens, UniProt P35354); experiment: COX colorimetric inhibitor screening assay, COX-2; type: biochemical; conditions: for IC50 / IC50 [µM] ± SD COX-2: after 2 min of incubation, n = 5; for IC50: read-out: IC50 [µM] ± SD COX-2; for COX-2/COX-1 Selectivity Ratio: ratio of IC50 COX-2 / IC50 COX-1
T1 construct: purchased Cayman Chemical Company, Ann Arbor, MI, USA
T1 sequence (P35354 18-604): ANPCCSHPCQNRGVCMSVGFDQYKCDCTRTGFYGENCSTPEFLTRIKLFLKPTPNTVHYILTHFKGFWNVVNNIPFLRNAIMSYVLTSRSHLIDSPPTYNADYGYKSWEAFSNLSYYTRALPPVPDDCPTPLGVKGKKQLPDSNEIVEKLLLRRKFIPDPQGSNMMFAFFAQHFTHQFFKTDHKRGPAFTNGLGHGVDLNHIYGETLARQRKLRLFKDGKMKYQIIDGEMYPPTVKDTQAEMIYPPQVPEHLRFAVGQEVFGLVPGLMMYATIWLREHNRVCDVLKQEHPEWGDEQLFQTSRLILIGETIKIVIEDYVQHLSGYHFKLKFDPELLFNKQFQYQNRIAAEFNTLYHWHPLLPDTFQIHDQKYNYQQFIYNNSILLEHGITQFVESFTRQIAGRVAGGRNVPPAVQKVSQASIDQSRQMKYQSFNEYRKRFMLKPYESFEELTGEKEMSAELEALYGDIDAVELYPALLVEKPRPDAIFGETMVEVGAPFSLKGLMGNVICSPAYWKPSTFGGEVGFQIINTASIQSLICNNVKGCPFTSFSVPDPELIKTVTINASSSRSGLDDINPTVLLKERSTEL
Source text: The compounds were studied for their potencies to inhibit COX-1 and COX-2 enzymes by the colorimetric inhibitor screening assay.
A COX Colorimetric Inhibitor Screening Assay Kit, produced by Cayman Chemical Company, Ann Arbor, MI, USA, was used. It used the colorimetric monitoring of oxidized form of TMPD (N,N,N′,N′-tetramethyl-p-phenylenediamine) which was produced during reduction of prostaglandin G2 (PGG2) to PGH2. […] Reagents used it this assay were: COX-1 and COX-2 enzymes, Tris-HCl buffer, solutions of heme in DMSO and TMPD, arachidonic acid, KOH. To be sure that 100% enzymatic activity was achieved each sample was measured 3 times. The probes were measured after two minutes of incubation with tested compounds in the comparison to the initial activity of enzyme.

[2] = test system: LoVo (colon adenocarcinoma); experiment: MTT assay, LoVo; type: cell-based; conditions: Homo sapiens, 48 h incubation, read-out: IC50 [µM] ± SD LoVo
Source text: (§1) The MTT (3-[4,5-dimethylthiazol-2-yl]-2,5-diphenyl tetrazolium bromide) assay was used to determine the cytotoxicity of tested compounds towards different cell lines: normal human dermal fibroblasts (NHDF), kidney epithelial cells (VERO), fibroblasts from Chinese hamster lung (V79) and four human cancer cells: A549 (pulmonary basal cell alveolar adenocarcinoma), MCF-7 (breast adenocarcinoma), LoVo (colon adenocarcinoma), and its drug resistant subline LoVo/Dx. The cell lines used in this study express COX-1 and COX-2. The LoVo line expressed COX-1, the LoVo/Dx subline express both COX-1 and COX-2 [61].
(§2) Each cell line was grown in the culture media recommended by supplier. Before the test they were detached with trypsin/EDTA solution, then to neutralize the effect of Trypsin/EDTA solution, FBS containing medium was used. After centrifugation the cells were stained with 0.4% solution of trypan blue, counted and inspected for viability using microscope. In the end, cells were inserted into 96-well culture plates and incubated in CO2 incubator (37 °C, 24 h). The number of cells was 2 × 10^3 cells per well. The tested compounds with different concentrations (5, 10, 20, 50, 100 µM) were dissolved in DMSO and then added to the cells (the final DMSO concentration was 0.1%). The cultures were incubated for another 48 h. After that time the cells were collected to be used in tests.
MTT assay was used to find out how tested compounds influence the metabolic activity of investigated cell lines. The cells were incubated with tested compounds. After removing of supernatant, 1 mg/mL of MTT solution in MEM was added to the plate (to each well) and then the plates were incubated at 37 °C for 2 h. The medium was removed again, and formazan crystals were dissolved in isopropanol. A Varioscan LUX microplate reader (Thermo Fisher Scientific, Waltham, MA, USA) was used to measure absorbance at 570 nm.

[3] = test system: LoVo/Dx (drug resistant subline of LoVo); experiment: MTT assay, LoVo/Dx; type: cell-based; conditions: Homo sapiens, 48 h incubation, read-out: IC50 [µM] ± SD LoVo/Dx
Source text: as §1
as §2, with “In the end, cells were inserted into 96-well culture plates and incubated in CO2 incubator (37 °C, 24 h).” left out
MTT assay was used to find out how tested compounds influence the metabolic activity of investigated cell lines. The cells were incubated with tested compounds. […] The medium was removed again, and formazan crystals were dissolved in isopropanol.

[4] = test system: V79 cell line; experiment: Intracellular ROS level (DCFH-DA), V79 cells; type: cell-based, Chinese hamster; conditions: Cricetulus griseus, 4 h, V79, compound 100 μM
Experimental: Two cell lines were chosen for investigations: V79 (Chinese hamster lung fibroblasts) and LoVo. V79 normal cells are widely used as the cell line tested in the studies of the oxidative stress. These cells are a living system model to explain the mechanism of ROS effects caused by varied compounds [73].
First, the tested compounds (in concentration of 100 μM) were added to the cell cultures and cells were incubated for 4 h. Then cells were washed and incubated with DCFH-DA (non-fluorescent probe) in dark at 37 °C for 2 h at CO2 [79]. Non-fluorescent, non-polar DCFH-DA (2′7′-dichlorodihydrofluorescein diacetate) at concentration of 25 μM was used as a marker of oxidative stress to determine the intracellular ROS levels. […] In this time, DCFH-DA which penetrated into the cells, was hydrolyzed by esterases to polar, non-fluorescent DCFH (2′7′-dichlorodihydrofluorescein) and then oxidized in the presence of ROS (reactive oxygen species) to fluorescent DCF (2′7′-dichlorofluorescein). DCF was measured using Varioscan LUX microplate reader (Thermo Fisher Scientific, Waltham, MA, USA) at λex = 485 nm and λem = 535 nm. Then results were presented as E/E0 where E is test sample value and E0—control value.
[…] E is the culture with the tested compound and E0 is the negative control without the compound. The routine statistical methods: two-way analysis of variance ANOVA as well as Tukey’s post-hoc test were used. It allowed us to determine the statistical significance of results, where p < 0.05 was set as significant. The statistical indicators were estimated using Statistica 13.3 software.

[5] = with H2O2 (100 μM, 30 min), n = 5, read-out: ROS scavenging activity, Mean E/E0 ± SD, with H2O2
[6] = without H2O2, n = 5, read-out: ROS scavenging activity, Mean E/E0 ± SD, without H2O2

| IC50 [1] [µM] | COX-2/COX-1 Selectivity Ratio [1] | IC50 [2] [µM] | IC50 [3] [µM] | IC50 [µM] ± SD COX-2 [1] | SMILES | activity at 100 µM [4, 5] [%] | activity at 100 µM [4, 6] [%] |
| --- | --- | --- | --- | --- | --- | --- | --- |
| 170 ± 19.1 | 1.97 | 3.12 ± 0.31 | 17.5 ± 8.73 | – | Cc1cc(C)c(C(=O)NCc2nn(CC(=O)NN=Cc3ccc(C(F)(F)F)cc3)c(=S)o2)c(S)n1 [Compound 11, 4,6-Dimethyl-N-{[4-(2-(2-(4-trifluoromethylbenzylidene)hydrazinyl)-2-oxoethyl)-5-sulfanylidene-4,5-dihydro-1,3,4-oxadiazole-2-yl]methyl}-2-sulfanylpyridine-3-carboxamide] | 112 ± 20 | 67 ± 24 |
| – | – | 3.01 ± 0.2 | 5.73 ± 3.84 | showed only COX-1 inhibitory activity | Cc1cc(C)c(C(=O)NCc2nn(CC(=O)NN)c(=S)o2)c(S)n1 [Compound 4, N-{[4-(2-hydrazinyl-2-oxoethyl)-5-sulfanylidene-4,5-dihydro-1,3,4-oxadiazol-2-yl]methyl}-4,6-dimethyl-2-sulfanylpyridine-3-carboxamide] | 42 ± 8 | 53 ± 22 |
| 187 ± 15.3 | 2.53 | 3.13 ± 0.17 | 5.69 ± 1.03 | – | Cc1cc(C)c(C(=O)NCc2nn(CC(=O)NN=Cc3ccccc3)c(=S)o2)c(S)n1 [Compound 5, 4,6-Dimethyl-N-{[4-(2-(2-benzylidenehydrazinyl)-2-oxoethyl)-5-sulfanylidene-4,5-dihydro-1,3,4-oxadiazol-2-yl]methyl}-2-sulfanylpyridine-3-carboxamide] | 59 ± 21 | 82 ± 13 |
| 103 ± 10.6 | 0.67 | 3.24 ± 0.1 | 6.87 ± 1.45 | – | Cc1cc(C)c(C(=O)NCc2nn(CC(=O)NN=Cc3ccc(C#N)cc3)c(=S)o2)c(S)n1 [Compound 9, 4,6-Dimethyl-N-{[4-(2-(2-(4-cyanobenzylidene)hydrazinyl)-2-oxoethyl)-5-sulfanylidene-4,5-dihydro-1,3,4-oxadiazole-2-yl]methyl}-2-sulfanylpyridine-3-carboxamide] | 71 ± 12 | 78 ± 31 |
| 128 ± 1.87 | – | 3.12 ± 0.23 | 22.3 ± 2.1 | – | Cc1cc(C)c(C(=O)NCc2nn(CC(=O)NN=Cc3ccc(Cl)cc3)c(=S)o2)c(S)n1 [Compound 10, 4,6-Dimethyl-N-{[4-(2-(2-(4-chlorobenzylidene)hydrazinyl)-2-oxoethyl)-5-sulfanylidene-4,5-dihydro-1,3,4-oxadiazole-2-yl]methyl}-2-sulfanylpyridine-3-carboxamide] | 82 ± 37 | 73 ± 27 |
| – | – | 3.6 ± 0.55 | 21 ± 5.92 | showed only COX-1 inhibitory activity | CSc1ccc(/C=N\NC(=O)Cn2nc(CNC(=O)c3c(C)cc(C)nc3S)oc2=S)cc1 [Compound 8, 4,6-Dimethyl-N-{[4-(2-(2-(4-methysulfanylbenzylidene)hydrazinyl)-2-oxoethyl)-5-sulfanylidene-4,5-dihydro-1,3,4-oxadiazole-2-yl]methyl}-2-sulfanylpyridine-3-carboxamide] | 72 ± 11 | 85 ± 29 |
| 184 ± 18.8 | 1.25 | 3.46 ± 0.39 | 7.89 ± 1.78 | – | Cc1ccc(C=NNC(=O)Cn2nc(CNC(=O)c3c(C)cc(C)nc3S)oc2=S)cc1 [Compound 7, 4,6-Dimethyl-N-{[4-(2-(2-(4-methylbenzylidene)hydrazinyl)-2-oxoethyl)-5-sulfanylidene-4,5-dihydro-1,3,4-oxadiazole-2-yl]methyl}-2-sulfanylpyridine-3-carboxamide] | 81 ± 23 | 103 ± 39 |
| 90.7 ± 19.6 | 1.36 | 3.07 ± 0.21 | 22.6 ± 8.19 | – | Cc1cc(C)c(C(=O)NCc2nn(CC(=O)NN=Cc3cccc(Cl)c3)c(=S)o2)c(S)n1 [Compound 12, 4,6-Dimethyl-N-{[4-(2-(2-(3-chlorobenzylidene)hydrazinyl)-2-oxoethyl)-5-sulfanylidene-4,5-dihydro-1,3,4-oxadiazole-2-yl]methyl}-2-sulfanylpyridine-3-carboxamide] | 62 ± 25 | 68 ± 27 |
| 73.2 ± 5.66 | – | 2.89 ± 0.08 | 9.4 ± 5.97 | – | Cc1cc(C)c(C(=O)NCc2nn(CC(=O)NN=Cc3ccccc3Br)c(=S)o2)c(S)n1 [Compound 13, 4,6-Dimethyl-N-{[4-(2-(2-(2-bromobenzylidene)hydrazinyl)-2-oxoethyl)-5-sulfanylidene-4,5-dihydro-1,3,4-oxadiazole-2-yl]methyl}-2-sulfanylpyridine-3-carboxamide] | 50 ± 15 | 59 ± 8 |
| 174 ± 5.84 | 1.20 | 3.2 ± 0.26 | 7.07 ± 2.48 | – | Cc1cc(C)c(C(=O)NCc2nn(CC(=O)NN=Cc3ccc(F)cc3)c(=S)o2)c(S)n1 [Compound 6, 4,6-Dimethyl-N-{[4-(2-(2-(4-fluorobenzylidene)hydrazinyl)-2-oxoethyl)-5-sulfanylidene-4,5-dihydro-1,3,4-oxadiazole-2-yl]methyl}-2-sulfanylpyridine-3-carboxamide] | 97 ± 11 | 82 ± 17 |

Source: article PMC8745710, “Biological Evaluation and Molecular Docking Studies of Novel 1,3,4-Oxadiazole Derivatives of 4,6-Dimethyl-2-sulfanylpyridine-3-carboxamide” (International Journal of Molecular Sciences, 2022)
